Assay results as given in ChEMBL document CHEMBL5537108, “A comprehensive review on the global efforts on vaccines and repurposed drugs for combating COVID-19” (Eur J Med Chem, 2023).
Counter-ions that a name gives are not always drawn.

Legend:
Type in all cases: functional, organism-based
Ebolavirus [1] = test: Antiviral activity against Ebola virus infected in African green monkey Vero cells incubated for 3 days by immunofocus assay; settings: Orthoebolavirus, 72 h
SARS-CoV-2 [2] = test: Antiviral activity against SARS-CoV-2 B.1.1.7 infected in human Calu-3 cells assessed as inhibition of viral infection measured after 48 hrs by Hoechst 33342 staining based analysis; settings: Severe acute respiratory syndrome coronavirus 2, B.1.1.7, Calu-3, 48 h
Ebolavirus [3] = test: Antiviral activity against EBOV infected in human Huh-7 cells assessed as reduction in viral replication; settings: Orthoebolavirus
SARS-CoV-2 [4] = test: Antiviral activity against SARS-CoV-2 infected in African green monkey Vero cells assessed as reduction in virus-induced cytopathic effect incubated for 5 days by microscopic analysis; settings: Severe acute respiratory syndrome coronavirus 2, Vero, 120 h
[5] = test system: Middle East respiratory syndrome-related coronavirus; test: Antiviral activity against MERS-CoV infected in human Calu-3 cells assessed as inhibition of viral growth by infection assay
SARS-CoV-2 [6] = test: Antiviral activity against SARS-CoV-2 NRC-03-nhCoV infected in african green monkey Vero E6 cells assessed as inhibition of virus-induced cytopathic effect measured after 72 hrs by crystal violet staining based assay; settings: Severe acute respiratory syndrome coronavirus 2, NRC-03-nhCoV, Vero C1008, 72 h
SARS-CoV-2 [7] = test: Antiviral activity against SARS-CoV-2 infected in African green monkey Vero cells assessed as reduction in viral replication measured after 72 hrs by qRT-PCR analysis; settings: Severe acute respiratory syndrome coronavirus 2, Vero
[8] = test system: Middle East respiratory syndrome-related coronavirus; test: Antiviral activity against MERS-CoV infected in african green monkey Vero E6; settings: Vero C1008

CCC(CC)COC(=O)[C@H](C)N[P@](=O)(OC[C@H]1O[C@@](C#N)(c2ccc3c(N)ncnn23)[C@H](O)[C@@H]1O)Oc1ccccc1
EC50 (Ebolavirus [1]): 0.77 µM
EC50 (SARS-CoV-2 [2]): 67 µM
EC50 (Ebolavirus [3]): 61.9 µM
EC50 (SARS-CoV-2 [4]): 0.01 µM

CN(C)C(=O)COC(=O)Cc1ccc(OC(=O)c2ccc(NC(=N)N)cc2)cc1 [CAMOSTAT]
EC50 [5]: 0.005 µM

Cc1nc(Nc2ncc(C(=O)Nc3c(C)cccc3Cl)s2)cc(N2CCN(CCO)CC2)n1 [DASATINIB ANHYDROUS]
EC50 (SARS-CoV-2 [6]): 2.1 µM

Cc1cccc(C)c1OCC(=O)N[C@@H](Cc1ccccc1)[C@@H](O)C[C@H](Cc1ccccc1)NC(=O)[C@H](C(C)C)N1CCCNC1=O [LOPINAVIR]
EC50 (SARS-CoV-2 [7]): 5.73 µM

N=C(N)Nc1ccc(C(=O)Oc2ccc3cc(C(=N)N)ccc3c2)cc1 [NAFAMOSTAT MESYLATE]
EC50 [5]: 0.087 µM

CC(C)c1nc(CN(C)C(=O)N[C@H](C(=O)N[C@@H](Cc2ccccc2)C[C@H](O)[C@H](Cc2ccccc2)NC(=O)OCc2cncs2)C(C)C)cs1 [RITONAVIR]
EC50 (SARS-CoV-2 [7]): 8.63 µM

CN1CCN(CCOc2cc(OC3CCOCC3)c3c(Nc4c(Cl)ccc5c4OCO5)ncnc3c2)CC1 [SARACATINIB]
EC50 [8]: 10 µM
